{"source": "ChEMBL document CHEMBL1201862", "about": "“PubChem BioAssay data set” (2004)", "assay_in_all_cases": "NCI tumour cell line growth inhibition, 48 h", "key": {"786-0": {"system": "786-0"}, "A498": {"system": "A498"}, "A549": {"system": "A549"}, "ACHN": {"system": "ACHN"}, "BT-549": {"system": "BT-549"}, "CAKI-1": {"system": "CAKI-1"}, "CCRF-CEM": {"system": "CCRF-CEM"}, "COLO 205": {"system": "COLO 205"}, "DU-145": {"system": "DU-145"}, "EKVX": {"system": "EKVX"}, "HCC 2998": {"system": "HCC 2998"}, "HCT-116": {"system": "HCT-116"}, "HCT-15": {"system": "HCT-15"}, "HL-60": {"system": "HL-60"}, "HOP-62": {"system": "HOP-62"}, "HOP-92": {"system": "HOP-92"}, "HT-29": {"system": "HT-29"}, "Hs-578T": {"system": "Hs-578T"}, "IGROV-1": {"system": "IGROV-1"}, "K562": {"system": "K562"}, "KM12": {"system": "KM12"}, "LOX IMVI": {"system": "LOX IMVI"}, "M14": {"system": "M14"}, "MCF7": {"system": "MCF7"}, "MDA-MB-231": {"system": "MDA-MB-231"}, "MDA-MB-435": {"system": "MDA-MB-435"}, "MDA-N": {"system": "MDA-N"}, "MOLT-4": {"system": "MOLT-4"}, "Malme-3M": {"system": "Malme-3M"}, "NCI-H226": {"system": "NCI-H226"}, "NCI-H23": {"system": "NCI-H23"}, "NCI-H460": {"system": "NCI-H460"}, "NCI-H522": {"system": "NCI-H522"}, "NCI/ADR-RES": {"system": "NCI/ADR-RES"}, "OVCAR-3": {"system": "OVCAR-3"}, "OVCAR-4": {"system": "OVCAR-4"}, "OVCAR-5": {"system": "OVCAR-5"}, "OVCAR-8": {"system": "OVCAR-8"}, "PC-3": {"system": "PC-3"}, "RPMI-8226": {"system": "RPMI-8226"}, "RXF 393": {"system": "RXF 393"}, "SF-268": {"system": "SF-268"}, "SF-295": {"system": "SF-295"}, "SF-539": {"system": "SF-539"}, "SK-MEL-28": {"system": "SK-MEL-28"}, "SK-MEL-2": {"system": "SK-MEL-2"}, "SK-MEL-5": {"system": "SK-MEL-5"}, "SK-OV-3": {"system": "SK-OV-3"}, "SN12C": {"system": "SN12C"}, "SNB-19": {"system": "SNB-19"}, "SNB-75": {"system": "SNB-75"}, "SR": {"system": "SR"}, "SW-620": {"system": "SW-620"}, "T47D": {"system": "T47D"}, "TK-10": {"system": "TK-10"}, "U-251": {"system": "U-251"}, "UACC-257": {"system": "UACC-257"}, "UACC-62": {"system": "UACC-62"}, "UO-31": {"system": "UO-31"}, "DMS-273": {"system": "DMS-273"}, "M19-MEL": {"system": "M19-MEL"}, "SNB-78": {"system": "SNB-78"}}, "note": "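Growth conditions: 96-well plates. Treatment: test compound, 48 hours, 5 concentrations. Analysis: linear interpolation between bracketing concentrations; unreached endpoints set to highest concentration. GI50 marks 50% less growth.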 Calls of active or inactive are those of the source. Cut-off read from the data, not from the text of the source: active = GI50 up to about 1.1 µM and inactive = higher.", "data": [{"molecule": "O=C1c2ccccc2-c2c1c1ccccc1c(=O)n2-c1ccccc1", "values": [{"measurement": "GI50", "setting": "786-0", "result": "3.07 µM (inactive)"}, {"measurement": "GI50", "setting": "A498", "result": "16.6 µM (inactive)"}, {"measurement": "GI50", "setting": "A549", "result": "13.1 µM (inactive)"}, {"measurement": "GI50", "setting": "ACHN", "result": "5.09 µM (inactive)"}, {"measurement": "GI50", "setting": "BT-549", "result": "14.4 µM (inactive)"}, {"measurement": "GI50", "setting": "CAKI-1", "result": "11.8 µM (inactive)"}, {"measurement": "GI50", "setting": "CCRF-CEM", "result": "> 100 µM (inactive)"}, {"measurement": "GI50", "setting": "COLO 205", "result": "> 46.5 µM (inactive)"}, {"measurement": "GI50", "setting": "DU-145", "result": "59.7 µM (inactive)"}, {"measurement": "GI50", "setting": "EKVX", "result": "23.3 µM (inactive)"}, {"measurement": "GI50", "setting": "HCC 2998", "result": "66.4 µM (inactive)"}, {"measurement": "GI50", "setting": "HCT-116", "result": "4.17 µM (inactive)"}, {"measurement": "GI50", "setting": "HCT-15", "result": 27.9, "unit": "µM"}, {"measurement": "GI50", "setting": "HL-60", "result": "> 33 µM (inactive)"}, {"measurement": "GI50", "setting": "HOP-62", "result": "4.26 µM (inactive)"}, {"measurement": "GI50", "setting": "HOP-92", "result": "26.9 µM (inactive)"}, {"measurement": "GI50", "setting": "HT-29", "result": "> 31.5 µM (inactive)"}, {"measurement": "GI50", "setting": "Hs-578T", "result": "8.36 µM (inactive)"}, {"measurement": "GI50", "setting": "IGROV-1", "result": "13.8 µM (inactive)"}, {"measurement": "GI50", "setting": "K562", "result": "> 60.1 µM (inactive)"}, {"measurement": "GI50", "setting": "KM12", "result": "14.6 µM (inactive)"}, {"measurement": "GI50", "setting": "LOX IMVI", "result": "68.5 µM (inactive)"}, {"measurement": "GI50", "setting": "M14", "result": "47.2 µM (inactive)"}, {"measurement": "GI50", "setting": "MCF7", "result": "19.3 µM (inactive)"}, {"measurement": "GI50", "setting": "MDA-MB-231", "result": "9.66 µM (inactive)"}, {"measurement": "GI50", "setting": "MDA-MB-435", "result": "> 100 µM (inactive)"}, {"measurement": "GI50", "setting": "MDA-N", "result": "> 79.1 µM (inactive)"}, {"measurement": "GI50", "setting": "MOLT-4", "result": "> 100 µM (inactive)"}, {"measurement": "GI50", "setting": "Malme-3M", "result": "> 62.5 µM (inactive)"}, {"measurement": "GI50", "setting": "NCI-H226", "result": "12.2 µM (inactive)"}, {"measurement": "GI50", "setting": "NCI-H23", "result": "11.6 µM (inactive)"}, {"measurement": "GI50", "setting": "NCI-H460", "result": "6.56 µM (inactive)"}, {"measurement": "GI50", "setting": "NCI-H522", "result": "18.2 µM (inactive)"}, {"measurement": "GI50", "setting": "NCI/ADR-RES", "result": "5.48 µM (inactive)"}, {"measurement": "GI50", "setting": "OVCAR-3", "result": "14.4 µM (inactive)"}, {"measurement": "GI50", "setting": "OVCAR-4", "result": "2.86 µM (inactive)"}, {"measurement": "GI50", "setting": "OVCAR-5", "result": "45.5 µM (inactive)"}, {"measurement": "GI50", "setting": "OVCAR-8", "result": "5.79 µM (inactive)"}, {"measurement": "GI50", "setting": "PC-3", "result": "> 81.5 µM (inactive)"}, {"measurement": "GI50", "setting": "RPMI-8226", "result": "> 100 µM (inactive)"}, {"measurement": "GI50", "setting": "RXF 393", "result": "4.59 µM (inactive)"}, {"measurement": "GI50", "setting": "SF-268", "result": "9.1 µM (inactive)"}, {"measurement": "GI50", "setting": "SF-295", "result": "10.1 µM (inactive)"}, {"measurement": "GI50", "setting": "SF-539", "result": "4.91 µM (inactive)"}, {"measurement": "GI50", "setting": "SK-MEL-28", "result": "> 100 µM (inactive)"}, {"measurement": "GI50", "setting": "SK-MEL-2", "result": "20.4 µM (inactive)"}, {"measurement": "GI50", "setting": "SK-MEL-5", "result": "9.66 µM (inactive)"}, {"measurement": "GI50", "setting": "SK-OV-3", "result": "13.2 µM (inactive)"}, {"measurement": "GI50", "setting": "SN12C", "result": "16.4 µM (inactive)"}, {"measurement": "GI50", "setting": "SNB-19", "result": "5.7 µM (inactive)"}, {"measurement": "GI50", "setting": "SNB-75", "result": "13.1 µM (inactive)"}, {"measurement": "GI50", "setting": "SR", "result": "> 100 µM (inactive)"}, {"measurement": "GI50", "setting": "SW-620", "result": "35.4 µM (inactive)"}, {"measurement": "GI50", "setting": "T47D", "result": "15.8 µM (inactive)"}, {"measurement": "GI50", "setting": "TK-10", "result": "11.7 µM (inactive)"}, {"measurement": "GI50", "setting": "U-251", "result": "9.18 µM (inactive)"}, {"measurement": "GI50", "setting": "UACC-257", "result": "> 82.4 µM (inactive)"}, {"measurement": "GI50", "setting": "UACC-62", "result": "11.1 µM (inactive)"}, {"measurement": "GI50", "setting": "UO-31", "result": "5.64 µM (inactive)"}]}, {"molecule": "COC1=C(OC)C(O)(c2ccccc2)C1=O", "note": "(stereo unspecified)", "values": [{"measurement": "GI50", "setting": "A498", "result": "> 100 µM (inactive)"}, {"measurement": "GI50", "setting": "A549", "result": "> 100 µM (inactive)"}, {"measurement": "GI50", "setting": "ACHN", "result": "> 100 µM (inactive)"}, {"measurement": "GI50", "setting": "CCRF-CEM", "result": "> 100 µM (inactive)"}, {"measurement": "GI50", "setting": "DMS-273", "result": "> 100 µM (inactive)"}, {"measurement": "GI50", "setting": "EKVX", "result": "> 100 µM (inactive)"}, {"measurement": "GI50", "setting": "HL-60", "result": "> 100 µM (inactive)"}, {"measurement": "GI50", "setting": "HOP-62", "result": "> 100 µM (inactive)"}, {"measurement": "GI50", "setting": "HOP-92", "result": "> 100 µM (inactive)"}, {"measurement": "GI50", "setting": "HT-29", "result": "> 100 µM (inactive)"}, {"measurement": "GI50", "setting": "IGROV-1", "result": "> 100 µM (inactive)"}, {"measurement": "GI50", "setting": "KM12", "result": "> 100 µM (inactive)"}, {"measurement": "GI50", "setting": "M14", "result": "> 100 µM (inactive)"}, {"measurement": "GI50", "setting": "M19-MEL", "result": "> 100 µM (inactive)"}, {"measurement": "GI50", "setting": "MOLT-4", "result": "> 100 µM (inactive)"}, {"measurement": "GI50", "setting": "NCI-H23", "result": "> 100 µM (inactive)"}, {"measurement": "GI50", "setting": "NCI-H460", "result": "> 100 µM (inactive)"}, {"measurement": "GI50", "setting": "NCI-H522", "result": "> 100 µM (inactive)"}, {"measurement": "GI50", "setting": "OVCAR-5", "result": "> 100 µM (inactive)"}, {"measurement": "GI50", "setting": "OVCAR-8", "result": "> 100 µM (inactive)"}, {"measurement": "GI50", "setting": "RXF 393", "result": "> 100 µM (inactive)"}, {"measurement": "GI50", "setting": "SF-268", "result": "> 100 µM (inactive)"}, {"measurement": "GI50", "setting": "SF-295", "result": "> 100 µM (inactive)"}, {"measurement": "GI50", "setting": "SK-MEL-28", "result": "> 100 µM (inactive)"}, {"measurement": "GI50", "setting": "SK-OV-3", "result": "> 100 µM (inactive)"}, {"measurement": "GI50", "setting": "SNB-19", "result": "> 100 µM (inactive)"}, {"measurement": "GI50", "setting": "SNB-78", "result": "> 100 µM (inactive)"}, {"measurement": "GI50", "setting": "SR", "result": "> 100 µM (inactive)"}, {"measurement": "GI50", "setting": "TK-10", "result": "22.2 µM (inactive)"}, {"measurement": "GI50", "setting": "U-251", "result": "> 100 µM (inactive)"}, {"measurement": "GI50", "setting": "UACC-257", "result": "> 100 µM (inactive)"}, {"measurement": "GI50", "setting": "UO-31", "result": "> 100 µM (inactive)"}]}]}
